Results reported in patent US7282492B2, “Insecticidal composition having improved storage stability” (priority 2001, dated 2007).

Assay: Storage stability of Dimethoate emulsifiable concentrates Ia, Ib, Ic (Example 1)
Type: physicochemical
Details: stored 14 days at 54° C.; Table 1
Method: Three emulsifiable concentrates (Ia, Ib and Ic) containing. Dimethoate were prepared by mixing the components listed below in the amounts stated. Said amounts are parts by weight.
The formulations Ia and Ib are not according to the invention but serve as comparison examples to formulation Ic (according to the invention).
The formulations were stored at different temperatures for various periods of time, whereupon the pro rata share of Dimethoate degradation was determined.

In the case of `O=C1C=CC(=O)O1` [maleic anhydride], the “Stabilization of Dimethoate relative to acetic anhydride” value is reported as “twice as effectively”.
